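The compound was tested at five concentrations on cells cultured in 96-well plates, with a 48-hour exposure period. GI50 is the concentration that inhibits growth by half.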 Active and inactive are the calls of the source. Rule as the data show it: active = GI50 up to about 1.1 µM and inactive = higher.
How the values were obtained:
Experiment in all cases: NCI-60 cell line screen, 48 h
NCI-H226 = test system: NCI-H226
SN12C = test system: SN12C
NCI/ADR-RES = test system: NCI/ADR-RES
PC-3 = test system: PC-3
CAKI-1 = test system: CAKI-1
RXF 393 = test system: RXF 393
UACC-62 = test system: UACC-62
Hs-578T = test system: Hs-578T
UACC-257 = test system: UACC-257
SK-MEL-2 = test system: SK-MEL-2
786-0 = test system: 786-0
NCI-H23 = test system: NCI-H23
COLO 205 = test system: COLO 205
DU-145 = test system: DU-145
SF-295 = test system: SF-295
HCT-15 = test system: HCT-15
MDA-MB-231 = test system: MDA-MB-231
T47D = test system: T47D
Malme-3M = test system: Malme-3M
OVCAR-5 = test system: OVCAR-5
HOP-92 = test system: HOP-92
NCI-H522 = test system: NCI-H522
SK-MEL-28 = test system: SK-MEL-28
HCT-116 = test system: HCT-116
ACHN = test system: ACHN
HL-60 = test system: HL-60
EKVX = test system: EKVX
A498 = test system: A498
MDA-MB-435 = test system: MDA-MB-435
SK-MEL-5 = test system: SK-MEL-5
MCF7 = test system: MCF7
NCI-H460 = test system: NCI-H460
SNB-75 = test system: SNB-75
K562 = test system: K562
UO-31 = test system: UO-31
IGROV-1 = test system: IGROV-1
CCRF-CEM = test system: CCRF-CEM
HCC 2998 = test system: HCC 2998
LOX IMVI = test system: LOX IMVI
TK-10 = test system: TK-10
U-251 = test system: U-251
OVCAR-4 = test system: OVCAR-4
MOLT-4 = test system: MOLT-4
SW-620 = test system: SW-620
OVCAR-8 = test system: OVCAR-8
SNB-19 = test system: SNB-19
HT-29 = test system: HT-29
SK-OV-3 = test system: SK-OV-3
SF-539 = test system: SF-539
A549 = test system: A549
BT-549 = test system: BT-549
KM12 = test system: KM12
MDA-N = test system: MDA-N
SF-268 = test system: SF-268
OVCAR-3 = test system: OVCAR-3
M14 = test system: M14
HOP-62 = test system: HOP-62
RPMI-8226 = test system: RPMI-8226

Q: What does the source list for O=P(O)(O)CC1OC(CO)C(O)C1O (configuration not stated)?
A: GI50 (NCI-H226): > 100 µM (inactive); GI50 (SN12C): > 100 µM (inactive); GI50 (NCI/ADR-RES): > 100 µM (inactive); GI50 (PC-3): > 100 µM (inactive); GI50 (CAKI-1): > 100 µM (inactive); GI50 (RXF 393): > 100 µM (inactive); GI50 (UACC-62): > 100 µM (inactive); GI50 (Hs-578T): > 100 µM (inactive); GI50 (UACC-257): > 100 µM (inactive); GI50 (SK-MEL-2): > 100 µM (inactive); GI50 (786-0): > 100 µM (inactive); GI50 (NCI-H23): > 100 µM (inactive); GI50 (COLO 205): > 100 µM (inactive); GI50 (DU-145): > 100 µM (inactive); GI50 (SF-295): > 100 µM (inactive); GI50 (HCT-15): > 100000 nM; GI50 (MDA-MB-231): > 100 µM (inactive); GI50 (T47D): > 100 µM (inactive); GI50 (Malme-3M): > 100 µM (inactive); GI50 (OVCAR-5): > 100 µM (inactive); GI50 (HOP-92): > 100 µM (inactive); GI50 (NCI-H522): > 100 µM (inactive); GI50 (SK-MEL-28): > 100 µM (inactive); GI50 (HCT-116): > 100 µM (inactive); GI50 (ACHN): > 100 µM (inactive); GI50 (HL-60): > 100 µM (inactive); GI50 (EKVX): > 100 µM (inactive); GI50 (A498): > 100 µM (inactive); GI50 (MDA-MB-435): > 100 µM (inactive); GI50 (SK-MEL-5): > 100 µM (inactive); GI50 (MCF7): > 100 µM (inactive); GI50 (NCI-H460): > 100 µM (inactive); GI50 (SNB-75): > 100 µM (inactive); GI50 (K562): > 100 µM (inactive); GI50 (UO-31): > 100 µM (inactive); GI50 (IGROV-1): > 100 µM (inactive); GI50 (CCRF-CEM): > 100 µM (inactive); GI50 (HCC 2998): > 100 µM (inactive); GI50 (LOX IMVI): > 100 µM (inactive); GI50 (TK-10): > 100 µM (inactive); GI50 (U-251): > 100 µM (inactive); GI50 (OVCAR-4): > 100 µM (inactive); GI50 (MOLT-4): > 100 µM (inactive); GI50 (SW-620): > 100 µM (inactive); GI50 (OVCAR-8): > 100 µM (inactive); GI50 (SNB-19): > 100 µM (inactive); GI50 (HT-29): > 100 µM (inactive); GI50 (SK-OV-3): > 100 µM (inactive); GI50 (SF-539): > 100 µM (inactive); GI50 (A549): > 100 µM (inactive); GI50 (BT-549): > 100 µM (inactive); GI50 (KM12): > 100 µM (inactive); GI50 (MDA-N): > 100 µM (inactive); GI50 (SF-268): > 100 µM (inactive); GI50 (OVCAR-3): > 100 µM (inactive); GI50 (M14): > 100 µM (inactive)

Q: What does the source list for CC(=N/NC(=S)N1CCCCC1)/C(=N\NC(=S)N1CCCCC1)c1ccccc1?
A: GI50 (NCI-H226): 1.91 µM (inactive); GI50 (SN12C): 1.82 µM (inactive); GI50 (NCI/ADR-RES): 2.65 µM (inactive); GI50 (PC-3): 1.64 µM (inactive); GI50 (CAKI-1): 2.04 µM (inactive); GI50 (RXF 393): 1.35 µM (inactive); GI50 (UACC-62): 1.77 µM (inactive); GI50 (Hs-578T): 1.84 µM (inactive); GI50 (UACC-257): 1.95 µM (inactive); GI50 (SK-MEL-2): 2.11 µM (inactive); GI50 (786-0): 1.99 µM (inactive); GI50 (NCI-H23): 2.2 µM (inactive); GI50 (COLO 205): 2.22 µM (inactive); GI50 (DU-145): 0.512 µM (active); GI50 (SF-295): 1.87 µM (inactive); GI50 (HCT-15): 2100 nM; GI50 (MDA-MB-231): 2.7 µM (inactive); GI50 (T47D): 2.12 µM (inactive); GI50 (Malme-3M): 2.13 µM (inactive); GI50 (OVCAR-5): 2 µM (inactive); GI50 (HOP-92): 1.9 µM (inactive); GI50 (NCI-H522): 2.23 µM (inactive); GI50 (SK-MEL-28): 2.09 µM (inactive); GI50 (HCT-116): 2.53 µM (inactive); GI50 (HOP-62): 2.04 µM (inactive); GI50 (ACHN): 1.6 µM (inactive); GI50 (EKVX): 1.89 µM (inactive); GI50 (RPMI-8226): 3.36 µM (inactive); GI50 (A498): 1.3 µM (inactive); GI50 (MDA-MB-435): 2.08 µM (inactive); GI50 (SK-MEL-5): 1.96 µM (inactive); GI50 (MCF7): 2.75 µM (inactive); GI50 (NCI-H460): 1.91 µM (inactive); GI50 (SNB-75): 1.91 µM (inactive); GI50 (K562): 4.74 µM (inactive); GI50 (UO-31): 1.76 µM (inactive); GI50 (IGROV-1): 1.72 µM (inactive); GI50 (HCC 2998): 2.3 µM (inactive); GI50 (LOX IMVI): 3.43 µM (inactive); GI50 (TK-10): 1.74 µM (inactive); GI50 (U-251): 1.68 µM (inactive); GI50 (OVCAR-4): 1.85 µM (inactive); GI50 (MOLT-4): 6.19 µM (inactive); GI50 (SW-620): 2.15 µM (inactive); GI50 (OVCAR-8): 2.64 µM (inactive); GI50 (SNB-19): 1.87 µM (inactive); GI50 (HT-29): 2.1 µM (inactive); GI50 (SK-OV-3): 1.95 µM (inactive); GI50 (SF-539): 2.67 µM (inactive); GI50 (A549): 2.03 µM (inactive); GI50 (BT-549): 1.91 µM (inactive); GI50 (KM12): 1.97 µM (inactive); GI50 (MDA-N): 2.61 µM (inactive); GI50 (SF-268): 1.79 µM (inactive); GI50 (OVCAR-3): 1.65 µM (inactive); GI50 (M14): 1.99 µM (inactive)

— ChEMBL document CHEMBL1201862, “PubChem BioAssay data set” (2004)
